Measured values: US7923004B2 (priority 2006, dated 2011)

What was measured:
Format in all cases: cell-based
[1] = Cell Titer-Glo Cell Viability Assay, genotype 1a cells; conditions: human, En5-3/Htat2ANeo (HCV genotype 1a replicon) cells, HCV-1a assays, read-out: Cytotoxicity* (CC50)
Description: (§1) Cell Seeding and Compound Treatment: Huh-Luc-Neo (Genotype 1b) or En5-3/Htat2ANeo (Genotype 1a) cells are seeded at 5000-7000/well in an opaque-walled 96 plate with Growth Medium (DMEM phenol red free+PS+2 mM glutamine; 100 ul/well). The compounds to be tested for inhibition of cell viability are added to the experimental wells so as to generate a dose response curve (8-9 concentrations, 10 μl/well at 10× assay concentration) and the cells are then incubated (5% CO2, 37° C.) for 72 h.
(§2) Reagent Preparation and Assay: After completion of the incubation period the cell viability measurements are made using the Cell Titre Glo Assay (Promega) according to the manufacturer's recommended protocol. Briefly, the CellTiter-Glo Buffer is thawed and equilibrated to room temperature prior to use. The lyophilized CellTiter-Glo Substrate is also equilibrated to room temperature prior to use. 10 ml of CellTiter-Glo Buffer is then transferred to 1 vial of CellTiter-Glo Substrate and mixed gently with a Vortex. 100 μl of CellTiter-Glo Assay reagent (CellTiter-Glo Buffer+CellTiter-Glo Substrate Mixture) is added to each well. The well contents are mixed for 5 min. on an orbital shaker at room temperature to induce cell lysis and the luminescence is then measured using a luminometer.

[2] = tested on: HCV genotype 1a replicon (En5-3/Htat2ANeo cells); assay: HCV-1a Replicon RNA (Taqman) inhibition assay; conditions: Hepatitis C virus, 72 h
[3] = Cell Titer-Glo Cell Viability Assay, genotype 1b cells; conditions: human, Huh-Luc-Neo (HCV genotype 1b replicon) cells, HCV genotype 1b assays, read-out: Cytotoxicity* (CC50)
Description: as §1, §2

[4] = tested on: HCV genotype 1b replicon (Huh-Luc-Neo cells); assay: HCV Replicon Luciferase Assay; conditions: Hepatitis C virus, 72 h, read-out: HCV-1b Replicon Inhibition*, Luciferase (EC50)
[5] = tested on: HCV genotype 1b replicon (Huh-Luc-Neo cells); assay: HCV Replicon RNA (Taqman) Assay, genotype 1b; conditions: Hepatitis C virus, 72 h, read-out: HCV-1b Replicon Inhibition*, Taqman (EC50)
[6] = Huh-Luc-Neo cells, genotype 1b, HCV RNA
[7] = GETYPE1B, Huh-Luc-Neo cells, genotype 1b
[8] = GETYPE1B, Huh-Luc-Neo cells, genotype 1b, HCV RNA

| SMILES | CC50 at 72 h [1] | EC50 [2] | CC50 at 72 h [3] | EC50 ([4]; Huh-Luc-Neo cells, genotype 1b) | EC50 [5, 6] | further results |
| --- | --- | --- | --- | --- | --- | --- |
| COCC(=O)N[C@@H](C(=O)N1CCOC[C@H]1C(=O)Nc1ccc(C#Cc2cn(C)nc2-c2cc(Cl)ccc2O)cc1)c1ccccc1 [Compound 12] | > 33.3 µM | < 1 µM |  |  |  |  |
| Cc1ccc(O)c(-c2nn(C)cc2C#Cc2ccc(NC(=O)[C@@H]3COCCN3C(=O)[C@H](NC(=O)N3CCOCC3)c3ccccc3)cc2)c1 [Example 19] | > 33.3 µM | < 1 µM |  |  |  |  |
| COC(=O)C1CCCN1C(=O)N[C@@H](C(=O)N1CCOC[C@H]1C(=O)Nc1ccc(C#Cc2cn(CCC#N)nc2-c2cc(Cl)ccc2O)cc1)c1ccccc1 (some centres unmarked) [Compound 14] | > 33.3 µM | < 1 µM |  |  |  |  |
| N#CCCn1cc(C#Cc2ccc(NC(=O)[C@@H]3COCCN3C(=O)[C@H](NC(=O)N3CCC3)c3ccccc3)cc2)c(-c2cc(Cl)ccc2O)n1 [Compound 15] | > 33.3 µM | < 1 µM |  |  |  |  |
| N#CCCn1cc(C#Cc2ccc(NC(=O)[C@@H]3COCCN3C(=O)[C@H](NC(=O)N3CCC(=O)CC3)c3ccccc3)cc2)c(-c2cc(Cl)ccc2O)n1 [Compound 7] | > 33.3 µM | < 1 µM |  |  |  |  |
| CN1CCN(C(=O)N[C@@H](C(=O)N2CCOC[C@H]2C(=O)Nc2ccc(C#Cc3cn(CCC#N)nc3-c3cc(Cl)ccc3O)cc2)c2ccccc2)CC1 [Compound 16] | 1 to 10 µM | < 1 µM |  |  |  |  |
| Cn1cc(C#Cc2ccc(NC(=O)[C@@H]3COCCN3C(=O)[C@H](NC(=O)N3CCC3)c3ccccc3)cc2)c(-c2cc(Cl)ccc2O)n1 [Compound 10] | > 33.3 µM | < 1 µM |  |  |  |  |
| Cn1cc(C#Cc2ccc(NC(=O)[C@@H]3COCCN3C(=O)[C@H](NC(=O)N3CCOCC3)c3ccccc3)cc2)c(-c2cc(Cl)ccc2O)n1 [Example 17] | > 33.3 µM |  |  |  |  | EC50 ([2]; GETYPE1A): < 1 µM |
| CC(C)n1cc(C#Cc2ccc(NC(=O)[C@@H]3COCCN3C(=O)[C@H](NC(=O)c3ccccc3)c3ccccc3)cc2)c(-c2cc(Cl)ccc2O)n1 [Compound 6] | > 33.3 µM | < 1 µM |  |  |  |  |
| Cn1cc(C#Cc2ccc(NC(=O)[C@@H]3COCCN3C(=O)[C@H](NC(=O)c3cccs3)c3ccccc3)cc2)c(-c2cc(Cl)ccc2O)n1 [Compound 9] | > 33.3 µM | < 1 µM |  |  |  |  |
| CN(C)CCn1cc(C#Cc2ccc(NC(=O)[C@@H]3COCCN3C(=O)[C@H](NC(=O)NOC(C)(C)C)c3ccccc3)cc2)c(-c2cc(Cl)ccc2O)n1 [Example 18] | 1 to 10 µM | 1 to 10 µM |  |  |  |  |
| N#CCCn1cc(C#Cc2ccc(NC(=O)[C@@H]3COCCN3C(=O)[C@H](NC(=O)N3CCNC(=O)C3)c3ccccc3)cc2)c(-c2cc(Cl)ccc2O)n1 [Example 20] | > 33.3 µM | < 1 µM |  |  |  |  |
| CC(C)n1cc(C#Cc2ccc(NC(=O)[C@@H]3COCCN3C(=O)[C@H](NC(=O)NC(C)(C)C)c3ccccc3)cc2)c(-c2cc(Cl)ccc2O)n1 [Compound 11] | > 33.3 µM | < 1 µM |  |  |  |  |
| N#CCCn1cc(C#Cc2ccc(NC(=O)[C@@H]3COCCN3C(=O)[C@H](NC(=O)NC3CC3)c3ccccc3)cc2)c(-c2cc(Cl)ccc2O)n1 [Compound 3] | > 33.3 µM | < 1 µM |  |  |  |  |
| Cc1ccc(O)c(-c2nn(C)cc2C#Cc2ccc(NC(=O)C3CCCCN3C(=O)[C@@H](NC(=O)OC(C)(C)C)C3CCCCC3)cc2)c1 (some centres unmarked) [Compound 13] |  |  | > 100 µM | 1 to 10 µM | < 1 µM |  |
| Cn1cc(C#Cc2ccc(NC(=O)[C@@H]3COCCN3C(=O)[C@H](NC(=O)c3ccc(C#N)cc3)c3ccccc3)cc2)c(-c2cc(Cl)ccc2O)n1 [Compound 5] | > 33.3 µM | < 1 µM |  |  |  |  |
| Cc1ccc(O)c(-c2nn(C)cc2C#Cc2ccc(NC(=O)[C@@H]3CCCCN3C(=O)[C@@H](NC(=O)OC(C)(C)C)c3ccccc3)cc2)c1 [Example 17] |  |  | > 100 µM | < 1 µM | < 1 µM |  |
| Cc1ccc(O)c(-c2nn(C)cc2C#Cc2ccc(NC(=O)C3CCCCN3C(=O)[C@H](Cc3ccco3)NC(=O)OC(C)(C)C)cc2)c1 (some centres unmarked) [Compound 12A] |  |  | 10 to 100 µM |  |  | EC50 [4, 7]: < 1 µM; EC50 [5, 8]: < 1 µM |

| SMILES | CC50 at 72 h [1] | EC50 [2] | CC50 at 72 h [3] | EC50 ([4]; Huh-Luc-Neo cells, genotype 1b) | EC50 [5, 6] | further results |
| --- | --- | --- | --- | --- | --- | --- |
| CN(C(=O)OC(C)(C)C)[C@@H](Cc1ccccc1)C(=O)N1CCCC[C@@H]1C(=O)Nc1ccc(C#Cc2cn(CCO)nc2-c2cc(Cl)ccc2O)cc1 [Compound 42] |  |  | 10 to 100 µM | < 1 µM | < 1 µM |  |
| Cc1ccc(O)c(-c2nn(C)cc2C#Cc2ccc(NC(=O)C3CCCCN3C(=O)[C@H](Cc3ccc(Cl)cc3)NC(=O)OC(C)(C)C)cc2)c1 (some centres unmarked) [Compound 23] |  |  | 10 to 100 µM | < 1 µM | < 1 µM |  |
| N#CCCn1cc(C#Cc2ccc(NC(=O)[C@@H]3COCCN3C(=O)[C@H](NC(=O)N3CCOCC3)c3ccccc3)cc2)c(-c2cc(Cl)ccc2O)n1 [Compound 4] | > 33.3 µM | < 1 µM |  |  |  |  |
| Cc1ccc(OS(=O)(=O)C(F)(F)F)c(-c2nn(C)cc2C#Cc2ccc(NC(=O)C3CCCCN3C(=O)[C@H](Cc3ccccc3)NC(=O)OC(C)(C)C)cc2)c1 (some centres unmarked) [Compound 11] |  |  | > 100 µM | < 1 µM | < 1 µM |  |
| Cc1ccc(O)c(-c2nn(C)cc2C#Cc2ccc(NC(=O)[C@H]3CCCCN3C(=O)[C@H](Cc3ccccc3)NC(=O)OC(C)(C)C)cc2)c1 [Compound 2] |  |  | > 100 µM | < 1 µM | < 1 µM |  |
| Cc1ccc(O)c(-c2nn(C)cc2C#Cc2ccc(NC(=O)C3CCCCN3C(=O)[C@H](Cc3ccccc3)NC(=O)NC(C)(C)C)cc2)c1 (some centres unmarked) [Example 18] |  |  | > 100 µM | < 1 µM | < 1 µM |  |
| Cc1ccc(O)c(-c2nn(C)cc2C#Cc2ccc(NC(=O)C3CCCCN3S(=O)(=O)c3cccs3)cc2)c1 (centres unmarked) [Compound 12] |  |  | > 100 µM | < 1 µM | < 1 µM |  |
| CC(C)(C)OC(=O)N[C@@H](C(=O)N1CCCC[C@H]1C(=O)Nc1ccc(C#Cc2cn(CCO)nc2-c2cc(Cl)ccc2O)cc1)c1ccccc1 [Compound 39] |  |  | 10 to 100 µM | < 1 µM | < 1 µM |  |
| Cc1ccc(O)c(-c2nn(C)cc2C#Cc2ccc(NC(=O)[C@@H]3CS(=O)(=O)CCN3C(=O)[C@H](NC(=O)OC(C)(C)C)c3ccccc3)cc2)c1 [Compound 45] |  |  | > 100 µM | < 1 µM | < 1 µM |  |
| Cc1ccc(O)c(-c2nn(C)cc2C#Cc2ccc(NC(=O)C3CCCCN3C(=O)[C@H](Cc3cccc(F)c3)NC(=O)OC(C)(C)C)cc2)c1 (some centres unmarked) [Compound 27] |  |  | 10 to 100 µM | < 1 µM | < 1 µM |  |
| Cc1ccc(O)c(-c2nn(C)cc2C#Cc2ccc(NC(=O)[C@@H]3CCCCN3C(=O)[C@@H](Cc3ccccc3)NC(=O)OC(C)(C)C)cc2)c1 [Compound 15] |  |  | > 100 µM | < 1 µM | < 1 µM |  |
| Cn1cc(C#Cc2ccc(NC(=O)[C@@H]3COCCN3C(=O)[C@H](NC(=O)OC(C)(C)C)c3ccccc3)cc2)c(-c2cc(F)ccc2O)n1 [Example 47] |  |  | > 100 µM | < 1 µM | < 1 µM |  |
| Cn1cc(C#Cc2ccc(NC(=O)[C@@H]3COCCN3C(=O)[C@H](NC(=O)OC(C)(C)C)c3ccccc3)cc2)c(-c2cc(Cl)ccc2O)n1 [Example 51] |  |  | 10 to 100 µM | < 1 µM | < 1 µM |  |
| Cc1ccc(O)c(-c2nn(C)cc2C#Cc2ccc(NC(=O)C3CCCCN3C(=O)[C@H](Cc3ccccc3)NC(=O)OC(C)(C)C)cc2)c1 (some centres unmarked) [Compound 14] |  |  | > 100 µM | < 1 µM | < 1 µM |  |
| Cn1cc(C#Cc2ccc(NC(=O)[C@@H]3CCCCN3C(=O)[C@@H](NC(=O)OC(C)(C)C)c3ccsc3)cc2)c(-c2cc(Br)ccc2O)n1 [Example 49] |  |  | 10 to 100 µM | < 1 µM | < 1 µM |  |
| CCOC(=O)c1ccc(O)c(-c2nn(C)cc2C#Cc2ccc(NC(=O)[C@@H]3CCCCN3C(=O)[C@H](NC(=O)OC(C)(C)C)c3ccccc3OC)cc2)c1 [Compound 31] |  |  | > 100 µM | < 1 µM | < 1 µM |  |
| CC(C)(C)OC(=O)N[C@@H](C(=O)N1CCOCC1C(=O)Nc1ccc(C#Cc2cn(CCO)nc2-c2cc(Cl)ccc2O)cc1)c1ccccc1 (some centres unmarked) [Compound 30A] |  |  | > 100 µM |  |  | EC50 [4, 7]: < 1 µM; EC50 [5, 8]: < 1 µM |
| Cc1ccc(OCC(N)=O)c(-c2nn(C)cc2C#Cc2ccc(NC(=O)C3CCCCN3C(=O)[C@H](Cc3ccccc3)NC(=O)OC(C)(C)C)cc2)c1 (some centres unmarked) [Compound 58] |  |  | 10 to 100 µM |  |  | EC50 [4]: 1 to 10 µM; EC50 [5]: > 100 µM |
